Assay results reported in patent US20060211705A1, “'N-(2-chloro-6-methylphenyl)-2-[[6-[4-(2-hydroxyethyl)-1-piperazinyl]-2-methyl-4-pyrimidinyl]amino]-5-thiazolecarboxamides metabolites” (priority 2005, published 2006).

Experiment: Metabolite profile of [14C] compound (I) in rat hepatocyte incubations
Format: in vitro ADME, Sprague-Dawley rat
Conditions: (Ia) 20 μM, 3 h, 37° C., ~2 million cells/mL; relative distribution in radiochromatographic profile
Procedure: The compound of formula (I) was used as the [^14C] compound (Ia) (30.4 μCi/mg, radiochemical purity 99.2%), as the monohydrate of the free base. The C-14 label was on the carbon in the 2-position of the thiazole ring.
Freshly isolated rat hepatocyte preparations were prepared from one male Sprague-Dawley rat. Rat Hepatocytes were prepared according to a standard procedure (Seglen, PO. Preparation of isolated rat liver cells. Methods Cell Biol., 1976, 13: 29-83). Cryopreserved cynomolgus monkey hepatocytes (male, pooled, n=6) and human hepatocytes (3 individual preparation) were purchased from In Vitro Technologies (Baltimore, Md.). Microsomes from male SD Rats (pooled, n=200, 20 mg/mL) and male cynomolgus monkeys (pooled, n=8, 20 mg/mL) were obtained from Xenotech LLC, Kansas City, Kans. Human liver microsomes (male, pooled, n=38) were from BD-Gentest, Woburn, Mass.
A 6 mM stock solution of the compound of formula (Ia) (the [^14C] of the compound of formula (I) was prepared at by dissolving 3.7 mg of the compound of formula (Ia) into 1:1 acetonitrile/DMSO. The 2 mM stock solution of the compound of formula (Ia) was obtained by diluting an aliquot of the 6 mM stock solution 3-fold with acetonitrile.
Rat hepatocyte suspensions were provided at concentrations of 9.1 million cells/mL with a viability of 90%. The cell suspension was diluted accordingly with modified Krebs-Henseleit buffer to give a final concentration of 2 million cells/mL.
Viability of the hepatocytes was checked using a Trypan Blue exclusion assay and a hemocytometer. A mixture of 0.1 mL of the hepatocyte suspension and 0.1 mL of trypan blue solution were diluted with 0.8 mL of Krebs-Henseleit buffer. The solution was gently mixed and plated onto a Levy hemocytometer (Hausser Scientific) and the viable cells (unstained) were counted under a light microscope. The viability of the hepatocytes ranged from 77% to 90% at the beginning of the incubations.
Hepatocyte incubations were conducted at 37° C. for 3 h in a NAPCO CO2 6000 incubator (VWR Scientific Products) under a 5% CO2 atmosphere using an orbital shaker at 90 rpm. For each incubation, the final concentration of compound (Ia) was 20 μM and the hepatocyte concentrations were ˜2 million cells/mL. A control incubation, in the absence of hepatocytes, was also performed for 3 h. The incubations were stopped by adding one volume of ice-cold acetonitrile. Each 0.5 mL incubation contained 0.1 M potassium phosphate buffer (pH 7.4), 2.5 mM MgCl2, 2 mg/mL microsomal protein, and 2.0 mM NADPH. The final substrate concentration was 20 μM. The mixtures were incubated in a shaking water bath at 37° C. for 15 min. Control incubations in the absence of microsomes or NADPH were performed for each species. The reactions were stopped with the addition of 1 mL of ice-cold acetonitrile.
HPLC was performed on a Waters Alliance™ system equipped with Waters 2695 pumps and a photodiode array detector (Waters 2996). A Phenomenex Synergy Polar-RP® column (4.6×250 mm, 5 micron) was used for metabolite separation. All HPLC analyses were performed at 1 mL/min flow rate at room temperature. Two HPLC mobile phase and gradient systems were used because all metabolites could not be completely separated on either of the individual HPLC systems. The first system consisted of (A) water with 0.1% formic acid and (B) acetonitrile with 0.1% formic acid as mobile phase. The linear gradient was as follows: 0 min, 20% B; 1 min, 20% B; 41 min, 35% B; 42 min, 90% B; 44 min, 90% B. The column was re-equilibrated at 20% B for 6 min before the next injection. The second HPLC system was used to separate certain co-eluting metabolites that could not be separated by the first system. The mobile phase consisted of (A) water with 0.1% triflouroacetic acid (TFA) and (B) acetonitrile with 0.1% TFA. The gradient was as follows: 0 min, 20% B; 1 min, 20% B; 51 min, 35% B; 52 min, 90% B; 54 min 90% B. The column was equilibrated at 20% B for 6 min prior to the next injection. […]

| SMILES | % of Radioactivity in Hepatocytes, Rat |
| --- | --- |
| Cc1nc(Nc2ncc(C(=O)Nc3c(C)cccc3Cl)s2)cc(N2CCNCC2)n1 [M4 (II)] | 1.6% |
| Cc1nc(Nc2ncc(C(=O)Nc3c(C)cccc3Cl)s2)cc(N2CC[N+]([O-])(CCO)CC2)n1 [M5 (III)] | 2.7% |
| Cc1nc(Nc2ncc(C(=O)Nc3c(C)cccc3Cl)s2)cc(N2CCN(CC(=O)O)CC2)n1 [M6 (IV), 2-(4-(6-(5-((2-Chloro-6-methylphenyl)carbamoyl)thiazol-2-ylamino)-2-methylpyrimidin-4-yl)piperazin-1-yl)acetic acid] | 4.9% |
| Cc1nc(Nc2ncc(C(=O)Nc3c(C)cc(O)cc3Cl)s2)cc(N2CCN(CCO)CC2)n1 [M20 (V)] | 1.1% |
| Cc1nc(Nc2ncc(C(=O)Nc3c(Cl)cccc3CO)s2)cc(N2CCN(CCO)CC2)n1 [M24 (VI), N-(2-chloro-6-(hydroxymethyl)phenyl)-2-(6-(4-(2-hydroxyethyl)piperazin-1-yl)-2-methylpyrimidin-4-ylamino)thiazole-5-carboxamide] | 1.1% |
| Cc1nc(Nc2ncc(C(=O)Nc3c(C)cccc3Cl)s2)cc(N2CCN(CCO)CC2)n1 [Parent (I), N-(2-Chloro-6-methylphenyl)-2-[[6-[4-(2-hydroxyethyl)-1-piperazinyl]-2-methyl-4-pyrimidinyl]amino]-5-thiazolecarboxamide] | 88.8% |
